Activity calls are given as the source filed them.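 Rule for the calls: active = caspase luminescence falls with dose and the half-maximal concentration AC50 from the fitted curve is at or below a set limit; inconclusive = flat fit at 30 to 70% signal loss, or invalid fit; inactive = AC50 above the limit, or signal rises instead.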
test system: INS-1E cytokine-induced caspase-3/7, Caspase-Glo luminescence, 48 h; test: suppression of cytokine-driven beta-cell apoptosis – INS-1E rat cells, luminescence, orthogonal assay for beta-cell apoptosis protection project, dose response (AID 463206)

Compound	AC50
O=C(NCCc1cn2ccccc2n1)c1cc(COc2ccc3ncccc3c2)on1	> 26 µM (inactive)
O=C(CSC1=NCCS1)Nc1ccnc2ccccc12	> 26 µM (inactive)
O=C(N/N=C/c1cc(Br)c(O)c(Br)c1O)c1ccc2c(c1)OCCO2	> 26 µM (inactive)
Cc1ccc(S(=O)(=O)Nc2ccc(O)c3ccccc23)c(C)c1	> 26 µM (inactive)
CCC1CCCCN1S(=O)(=O)c1ccc(NC(=O)c2nc(S(C)(=O)=O)ncc2Cl)cc1 (centres undefined)	> 26 µM (inactive)
CCOc1ccc(OCc2ccc(C(=O)NN=Cc3ccc[nH]3)cc2)cc1	> 26 µM (inactive)
C[n+]1c2n(c3ccccc31)N=C(c1ccc(Cl)cc1)CS2	> 26 µM (inactive)
O=C(N/N=C/c1cc([N+](=O)[O-])ccc1O)c1cc(-c2ccccc2)nc2ccccc12	> 26 µM (inactive)
O=C(Nc1cccc([N+](=O)[O-])c1)c1cc2ccccc2cc1O	> 26 µM (inactive)
CCCC(=O)NC(c1ccc(C)cc1)c1ccc2cccnc2c1O (centres undefined)	> 26 µM (inactive)
O=C(/C=C/c1cccc([N+](=O)[O-])c1)c1ccc([N+](=O)[O-])o1	> 26 µM (inactive)
COc1cccc(N=Nc2ccc3cccnc3c2O)c1	> 26 µM (inactive)
COc1ccc(C(=O)N/N=C/c2cc(Br)ccc2O)cc1OC	> 26 µM (inactive)
COc1ccc2c(c1)C(=O)[C@H](O)[C@@H](c1ccc(OC)c(Br)c1)O2	> 26 µM (inactive)
O=C(N/N=C/c1cc(Br)cc(Br)c1O)c1ccncc1	> 26 µM (inactive)
C=C[C@H](Cc1ccccc1)N(Cc1ccccc1)S(=O)(=O)N(Cc1ccccc1)[C@H](C=C)Cc1ccccc1	> 26 µM (inactive)
COc1cccc(COc2cc3ccccc3nc2C)c1	> 26 µM (inactive)
c1cnc(N2CCN(Cc3c[nH]c4ccccc34)CC2)nc1	> 26 µM (inactive)
CN(Cc1c(F)cccc1Cl)C(=O)c1cc2ccccc2o1	> 26 µM (inactive)
O=C(N/N=C\c1c(O)ccc2ccccc12)c1ccc(S(=O)(=O)N2CCCCC2)cc1	> 26 µM (inactive)
Cc1ccc(C2=CC(c3ccc(N(C)C)cc3)n3nnnc3N2)cc1 (centres undefined)	> 26 µM (inactive)
Nc1nonc1-n1nnc(C(=O)N/N=C/c2ccccc2O)c1CN1CCCC1	> 26 µM (inactive)
COc1cccc(/C=N/NC(=O)C(=O)Nc2ccccc2OC(F)(F)C(F)F)c1O	> 26 µM (inactive)
CCS(=O)(=O)c1ccc(OC)c(N=Nc2ccc(O)c3ncccc23)c1	> 26 µM (inactive)

Compound	AC50
N#Cc1ccc(-c2ccc(Cl)cc2)nc1SCC(=O)c1cccc(Cl)c1	> 26 µM (inactive)
Cc1ccc2nc(-c3ccccn3)c(Nc3ccccc3C)n2c1	> 26 µM (inactive)
N#C/C(=N\Nc1ccc(Cl)cc1)C(=O)c1ccccc1	> 26 µM (inactive)
CCC(C)(C)c1ccc(OCCCC[n+]2ccc(C)cc2)c(C(C)(C)CC)c1	> 26 µM (inactive)
CCc1ccc2c(c1)C1(C(=O)N2)N2CCCC2C(C(=O)c2ccc3ccccc3c2)C12C(=O)Nc1ccccc12 (centres undefined)	> 26 µM (inactive)
COc1ccc(N/N=C/c2c(C(=O)O)ccc3ccccc23)cc1	> 26 µM (inactive)
CS(=O)(=O)N(CC(=O)Nc1ccc(CC#N)cc1)c1ccc(C23CC4CC(CC(C4)C2)C3)cc1	> 26 µM (inactive)
Cc1ccn2c(Nc3ccccc3)c(-c3ccccn3)nc2c1	> 26 µM (inactive)
Cc1ccccc1Oc1cc(NC(=O)CCCn2nc(C)c([N+](=O)[O-])c2C)cc([N+](=O)[O-])c1	> 26 µM (inactive)
Oc1ccc(-[n+]2c(-c3ccccc3)cc(-c3ccccc3)cc2-c2ccccc2)cc1	> 26 µM (inactive)
CC(=O)c1c(C)[nH]c(C(=O)OCC(=O)Nc2ccc(C)cc2[N+](=O)[O-])c1C	> 26 µM (inactive)
COc1ccc(-[n+]2c(C)cc(/C=C3\Sc4ccccc4N3C)cc2C)cc1	> 26 µM (inactive)
c1ccc(CCNc2nc(-c3ccccn3)nc3ccccc23)cc1	> 26 µM (inactive)
CCCCSc1ccc(NC(=O)c2cccnc2)cc1	> 26 µM (inactive)
Cc1cccc2cc(-c3ccccc3)c(-c3ccccc3)c[n+]12	> 26 µM (inactive)
CCOC(=O)c1cnc2ccc(OCC)cc2c1N1CCN(c2ccccc2)CC1	> 12 µM (inactive)
CC(C)Cn1c(SCC(=O)N2CCc3ccccc3C2)nc2cc(Cl)ccc2c1=O	> 26 µM (inactive)
Cc1ccc(-c2nc(NC(=O)c3nn(C)cc3[N+](=O)[O-])sc2C)cc1C	> 26 µM (inactive)
O=C(N/N=C/c1sc2ccccc2c1O)c1cccc2ccccc12	> 26 µM (inactive)
CCN1CCN(c2c(Cl)cccc2NC(=O)c2ccc([N+](=O)[O-])o2)CC1	> 26 µM (inactive)
CCN(CC)CCNc1ncnc2c1sc1nc(N3CCOCC3)c3c(c12)CC(C)(C)SC3	23.6 µM
O=C(Nc1ccc(OC(F)F)cc1)Nc1cccc(C(F)(F)F)c1	> 26 µM (inactive)
O=C(Nc1ccc(F)cc1)c1cccnc1	> 26 µM (inactive)
CN(C)c1ccc(NC(=S)NC23CC4CC(CC(C4)C2)C3)cc1	> 26 µM (inactive)

Compound	AC50
Cc1ccc(C2CC(c3cccc(Br)c3)n3nc(N)nc3N2)cc1 (centres undefined)	> 26 µM (inactive)
CCSCCc1nnc(NC(=O)Nc2cccc(C(F)(F)F)c2)s1	> 26 µM (inactive)
CCOC(=O)c1ccc(NC(=O)c2cccnc2)cc1	> 26 µM (inactive)
Cc1cc(C)n(-c2nc(NC(C)(C)C)nc(NC(C)(C)C)n2)n1	> 26 µM (inactive)
CCCCCCc1cc2cc(C(=O)Nc3cccc(OC)c3)c(=O)oc2cc1O	> 26 µM (inactive)
COc1ccccc1CNCC(O)Cn1c2ccccc2c2ccccc21 (centres undefined)	> 26 µM (inactive)
CSc1ccc(S(=O)(=O)Nc2ccc(N3CCOCC3)c(Cl)c2)cc1	> 26 µM (inactive)
O=C(N/N=C/c1cc([N+](=O)[O-])ccc1O)c1cccc(NC(=O)c2cccc(Cl)c2)c1	> 26 µM (inactive)
C#CCOCCOCCOCCNc1nc(N2CCN(C(=O)CCCCCCCCCCNC(=O)[C@H](CCCCN)n3cc(C)nn3)CC2)nc(N2CCN(C(=O)CCCCCCCCCCNC(=O)[C@H](CCCN=C(N)N)n3cc(C[C@@H](C)CC)nn3)CC2)n1	> 26 µM (inactive)
O=S(=O)(c1ccc(F)c(F)c1F)N1CCN(c2ncnc3sccc23)CC1	> 26 µM (inactive)
O=C(N/N=C/c1cnc(N2CCCCC2)s1)c1ccc(C(F)(F)F)cc1	> 26 µM (inactive)
Cc1ccc(O)c(/C=N/NC(=O)c2[nH]ncc2Br)c1	> 26 µM (inactive)
CSc1ccccc1OCc1cc(C(=O)N2CCc3c(Cl)cccc3C2)no1	> 26 µM (inactive)
CN(c1ccccc1)S(=O)(=O)c1ccc(NC(=O)c2nc(S(C)(=O)=O)ncc2Cl)cc1	> 26 µM (inactive)
Nc1nc2ccccc2n1/N=C/c1ccc([N+](=O)[O-])s1	> 26 µM (inactive)
Cc1ccc(C(=O)N2N=C(c3ccc(Br)cc3)CC2c2ccccc2O)cc1 (centres undefined)	> 26 µM (inactive)
CCN(CC)CCCNC1=C(Cl)C(=O)c2ccccc2C1=O	> 26 µM (inactive)
CCN(CC)c1ccc(C(=O)N/N=C/c2ccccc2OC(F)F)cc1	> 26 µM (inactive)
Cc1nnc(N/N=C/c2ccccn2)[nH]c1=O	> 26 µM (inactive)
C#CCOCCOCCOCCNc1nc(N2CCN(C(=O)CCCCCCCCCCNC(=O)[C@H](CCCCN)n3cc(CCO)nn3)CC2)nc(N2CCN(C(=O)CCCCCCCCCCNC(=O)[C@H](CCCCN)n3cc(C[C@@H](C)CC)nn3)CC2)n1	> 26 µM (inactive)
CC1Sc2ccc(S(=O)(=O)N3CCC(C(=O)Nc4ccc(Cl)cc4)CC3)cc2NC1=O (centres undefined)	> 26 µM (inactive)
CCCCNc1cc(C)nc(NCc2ccccc2)n1	> 26 µM (inactive)
Cc1cc(-c2n[nH]c(=S)n2/N=C/C(Br)=C/c2ccccc2)n[nH]1	12.4 µM
CCCCCCCCCCCCCCCC[N+](C)(C)C	> 26 µM (inactive)

Compound	AC50
COc1cccc(/C=N/NC(=O)c2[nH]nc3c2CCc2ccccc2-3)c1O	> 26 µM (inactive)
Cc1cc(C)c2c(N)c3cccc(C)c3nc2n1	4.47 µM
Fc1ccc2nc(Nc3nc4c(F)cc(F)cc4s3)sc2c1	> 26 µM (inactive)
COc1cccc(F)c1C(C[N+](=O)[O-])c1c(N)n(C)c(=O)n(C)c1=O (centres undefined)	> 26 µM (inactive)
CCC(C)(C)c1ccc(OCCCC[n+]2ccccc2)c(C(C)(C)CC)c1	> 26 µM (inactive)
Cc1ccc(Cl)cc1NC1=C/C(=N\S(=O)(=O)c2cccs2)c2ccccc2C1=O	> 26 µM (inactive)
COc1ccc(C[C@H]2CN3C(=NC[C@@H]3Cc3ccccc3)N2CCNC(=O)CCC2CCCCC2)cc1	> 26 µM (inactive)
CCOc1ccccc1NC(=O)C(=O)N/N=C/c1cc(Br)ccc1O	> 26 µM (inactive)
COCC1CCCCN1C(=O)c1cc(COc2ccc3ncccc3c2)on1 (centres undefined)	> 26 µM (inactive)
O=C(Nc1ccc(N2CCN(C(=O)c3ccc(Cl)cc3)CC2)cc1)c1cccnc1	> 26 µM (inactive)
CCn1c(SCC(=O)Nc2ccc(OC)cc2)nc2nc3c(cc2c1=O)CCCC3	> 26 µM (inactive)
CC1=C/C(=N\OS(=O)(=O)c2ccccc2)C(C)=CC1=O	> 26 µM (inactive)
C/C(=N\Nc1nc(C)cc(-c2ccccc2)n1)c1ccc(O)cc1	> 26 µM (inactive)
Oc1ccccc1/C=N/Nc1ncc(Br)cn1	> 26 µM (inactive)
CNC[C@@H](CC1CCCCC1)NC[C@H](CC(C)C)NCCc1cccc(C(F)(F)F)c1	> 26 µM (inactive)
c1ccc2c(CN3CCCCCCC3)c[nH]c2c1	> 26 µM (inactive)
Oc1ccccc1/C=N/Nc1nccnc1Cl	> 26 µM (inactive)
C=C(C(=O)c1ccccc1)C(C(=C)C(=O)c1ccccc1)c1ccc(OC)cc1	> 26 µM (inactive)
CC1(C)N=C(N)N=C(N)N1c1ccc(OCCCOc2ccccc2)c(Cl)c1	> 26 µM (inactive)
CNC[C@H](Cc1ccccc1)NC[C@@H](Cc1cccc2ccccc12)NCCc1ccc(C)cc1	> 26 µM (inactive)
Cc1cccc(CSC(Nc2ccc(F)cc2)=C(C#N)C#N)c1	> 26 µM (inactive)
COc1cccc(/C=N/NC(=O)c2c(C)nc3ccc(Cl)cn23)c1O	> 26 µM (inactive)

Source: PubChem BioAssay AID463206 (Broad Institute, 2010)
